These results are taken from ChEMBL document CHEMBL1152320, “Diterpene formamides from the tropical marine sponge Cymbastela hooperi and their antimalarial activity in vitro” (J Nat Prod, 2009).

For orientation: IC50 means the concentration that gives 50% inhibition.

Values after ≈ are worked out from the molar mass of the structure shown.

Assay [1] concerns Plasmodium falciparum. Put plainly: Antiplasmodial activity after 48 hrs against Plasmodium falciparum FCR3F86 by [3H]hypoxanthine uptake. The format is functional, organism-based.
The test system of assay [2] is Plasmodium falciparum. Put plainly: Antiplasmodial activity after 48 hrs against Plasmodium falciparum W2 by [3H]hypoxanthine uptake. It is filed as functional, organism-based.
The subject of assay [3] is Plasmodium falciparum. Kind of assay: Antiplasmodial activity after 48 hrs against Plasmodium falciparum D6 by [3H]hypoxanthine uptake. It is filed as functional, organism-based.
A further assay deals with KB. Put plainly: Cytotoxicity against human KB cells assessed as [3H]hypoxanthine incorporation after 48 hrs. The format is functional, cell-based.

As to `C[C@@H]1C[C@@H]2C[C@H](C)[C@H]3CC[C@](C)(NC=O)[C@H]4CC[C@@H]([C@@H]2[C@H]34)[C@]1(C)NC=O`, the IC50 in the assay on Plasmodium falciparum [1] was 14.8 µg/mL (≈ 41 µM).

`[C-]#[N+][C@]1(C)[C@H](C)C[C@@H]2C[C@H](C)[C@H]3CC[C@](C)(NC=O)[C@H]4CC[C@H]1[C@@H]2[C@H]34`: the IC50 was 0.2 µg/mL (≈ 0.584 µM) with Plasmodium falciparum [1], 0.6 µg/mL (≈ 1.75 µM) in the assay with Plasmodium falciparum [2], 0.8 µg/mL (≈ 2.34 µM) in the assay on Plasmodium falciparum [3] and greater than 5 µg/mL with KB.

Take `C=C(C)C[C@@H]1C[C@H](C)[C@H]2CC[C@](C)(NC=O)[C@H]3CCC(=C)[C@@H]1[C@H]23` (relative stereo): the IC50 in the assay with Plasmodium falciparum [1] was greater than 90 µg/mL.

The compound `C[C@H]1C[C@H]2CC(C)(C)C=C3CC[C@H]4[C@@H]([C@@H]1CC[C@]4(C)NC=O)[C@@H]32` (relative stereo) registered an IC50 in the assay on Plasmodium falciparum [1] greater than 100 µg/mL.

In the assay with Plasmodium falciparum [1], `C=C1CC[C@H]2[C@H]3[C@H](CC[C@]2(C)NC=O)[C@@H](C)C[C@H](C=C(C)C)[C@H]13` (relative stereo) gave an IC50 of 63 µg/mL (≈ 200 µM).

With `O=C1C(O)=C([C@H]2CC[C@H](c3ccc(Cl)cc3)CC2)C(=O)c2ccccc21` [ATOVAQUONE], the IC50 in the assay with Plasmodium falciparum [1] was 0.0004 µg/mL (≈ 0.00109 µM); in the assay on Plasmodium falciparum [2], 0.0008 µg/mL (≈ 0.00218 µM); in the assay with Plasmodium falciparum [3], 0.0002 µg/mL (≈ 0.000545 µM); in the assay on KB, greater than 5 µg/mL.
